Measured values reported in US7091197B2, “Beta-lactamase inhibitor prodrug” (Pfizer Inc., priority 2002, dated 2006).
≈ marks a conversion by molar mass, not a printed value. Marks after values point to notes of the source that are not given here.

Key:
[1] = Chemical (pH) stability in solution; format: physicochemical
Protocol: Buffers were appropriately formulated to achieve the desired pH of each incubation. […] The temperature of the incubation was regulated with a 96-well heat block. Incubations were performed at 25° C. and 37° C. […] An apparent first-order half-life could then be estimated as ln 2/kd.

[2] = target: BRO-1 and BRO-2 enzymes (Moraxella catarrhalis, UniProt Q59514); assay: β-lactamases from 30 recent clinical isolates of M. catarrhalis; format: biochemical; conditions: BRO-1 and BRO-2 enzymes from 30 recent clinical isolates of M. catarrhalis
Sequence of BRO-1 and BRO-2 enzymes (Q59514 whole entry): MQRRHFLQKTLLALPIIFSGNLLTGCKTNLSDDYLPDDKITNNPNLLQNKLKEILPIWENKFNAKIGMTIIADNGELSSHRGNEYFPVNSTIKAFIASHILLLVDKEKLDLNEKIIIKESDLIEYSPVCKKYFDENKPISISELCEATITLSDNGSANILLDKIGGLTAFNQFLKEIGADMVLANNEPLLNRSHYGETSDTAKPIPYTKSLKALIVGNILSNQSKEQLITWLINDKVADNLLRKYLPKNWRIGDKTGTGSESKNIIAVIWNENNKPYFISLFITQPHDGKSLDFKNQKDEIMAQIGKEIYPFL

[3] = Prodrug 3 suspension stability (0.5% methylcellulose); format: physicochemical; conditions: for Potency (percent) in suspension: 1.51 mg/ml, un-buffered 0.5% methylcellulose, 25° C.
[4] = in vitro; conditions: plasma
Protocol: The incubation consisted of 990 μl of plasma preincubated for 5 minutes at 37° C. in a 96-well heat block. The incubation was initiated with the addition of 10 μl of a 10 mM stock of compound in 100% methanol. Serial aliquots (100 μl) were removed and transferred to 200 μl of 75/25 acetonitrile/3% perchloric acid at 0, 1, 2, 5, 10, 20, 30, and 60 minutes. The samples were centrifuged, the supernatants transferred to injection vials, and 20 μl was injected onto the HPLC in-line with a LC/MS single quadropole mass spectrometer. The LC/MS system was run in the negative ion mode. […] The peak response at each time point was expressed as a percentage of that obtained at time=0. A degradation rate constant (kd) was obtained by regression of these percentages from time=0 minutes to […]. An apparent first-order half-life was then be estimated as ln 2/kd. These determinations were completed in duplicate and the average was reported as shown below.

[5] = target: E. coli TEM-1 beta-lactamase (Escherichia coli, UniProt P62593); assay: Beta-lactamase inhibitory activity at intestinal pH values; format: biochemical
Sequence of E. coli TEM-1 beta-lactamase (P62593 24-286 limits assumed): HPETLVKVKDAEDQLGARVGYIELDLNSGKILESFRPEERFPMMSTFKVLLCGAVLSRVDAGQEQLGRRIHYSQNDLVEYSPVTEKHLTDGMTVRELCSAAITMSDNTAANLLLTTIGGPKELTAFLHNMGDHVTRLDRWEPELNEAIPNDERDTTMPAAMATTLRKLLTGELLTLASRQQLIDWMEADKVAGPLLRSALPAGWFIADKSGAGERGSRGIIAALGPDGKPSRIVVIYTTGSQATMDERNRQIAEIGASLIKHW

[6] = Portal vein studies in rats; format: in vivo; conditions: portal vein cannulated rats; oral 100 mg/kg; 5, 15 and 30 minutes post dose; not detected, assay LLOQ
Protocol: Portal Vein Studies in Rats: Systemic exposure of Prodrug 3 was also assessed in portal vein cannulated rats following oral administration of the prodrug at a dose of 100 mg/kg. Whole blood aliquots were stabilized in ice cold acid immediately upon sampling at 5, 15 and 30 minutes post dose. No levels of Prodrug 3 were detected in any of the samples (assay LLOQ of 100 ng/ml).

[7] = tested on: Haemophilus influenzae (54A1218); assay: Gerbil otitis media model, H. influenzae; format: in vivo
[8] = tested on: Haemophilus influenzae (54A1218); assay: Murine systemic infection model, H. influenzae; format: in vivo; conditions: 96 h, oral, single agent, H. influenzae 54A1218, survival day 4
[9] = tested on: Moraxella catarrhalis (87A1115); assay: Murine systemic infection model, M. catarrhalis; format: in vivo; conditions: 96 h, oral, single agent, M. catarrhalis 87A1115, survival day 4
[10] = tested on: Staphylococcus aureus (01A0400); assay: Murine systemic infection model, S. aureus; format: in vivo; conditions: 96 h, oral, single agent, S. aureus 01A0400, survival day 4
[11] = tested on: Klebsiella pneumonaie (53A0031); assay: Murine systemic infection model, K. pneumoniae; format: in vivo; conditions: 96 h, oral, single agent, K. pneumoniae 53A0031, survival day 4
[12] = tested on: Eschericia coli (51A0257); assay: Murine systemic infection model, E. coli; format: in vivo; conditions: Escherichia coli, 96 h, oral, single agent, E. coli 51A0257, survival day 4
[13] = tested on: Streptococcus pneumoniae (02J1095); assay: Mouse pneumonia model, S. pneumoniae 02J1095; format: in vivo; conditions: 240 h, oral, single agent, survival day 10
[14] = tested on: Streptococcus pneumoniae (02J1016); assay: Mouse pneumonia model, S. pneumoniae 02J1016; format: in vivo; conditions: 240 h, oral, single agent, survival day 10
[15] = tested on: 21 penicillin-resistant strains of S. pneumoniae; assay: microbe, parasite or virus in culture; format: cell-based; conditions: Streptococcus pneumoniae; some S. pneumoniae clinical isolates; read-out: MICs of strains with high-level resistance
[16] = target: T1, BRO-2 β-lactamase (M. catarrhalis 87A1178 ATCC43617) (Moraxella catarrhalis, UniProt Q59514); assay: β-lactamase inhibition in cell extracts, BRO-2; format: biochemical
T1 sequence (Q59514 1-313 D293G): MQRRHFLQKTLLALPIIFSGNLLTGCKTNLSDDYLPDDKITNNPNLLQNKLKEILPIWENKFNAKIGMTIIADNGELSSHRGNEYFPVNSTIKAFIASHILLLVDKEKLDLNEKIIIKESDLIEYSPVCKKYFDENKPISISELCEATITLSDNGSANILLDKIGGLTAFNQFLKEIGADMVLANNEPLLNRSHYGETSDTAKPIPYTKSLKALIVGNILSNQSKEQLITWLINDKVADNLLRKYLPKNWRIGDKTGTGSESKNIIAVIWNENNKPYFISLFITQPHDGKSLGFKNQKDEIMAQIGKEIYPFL

[17] = clavulanate in the Augmentin suspension; room temperature, 10 days; cited from earlier work
[18] = in vivo, cited from earlier work
[19] = Hepatic extraction, rat hepatocytes; format: in vitro ADME
Description: (§1) L. and A. Barve, 1998. Linear correlation of the fraction of oral dose absorbed of 64 drugs between humans and rats. Pharm. Res. 15:1792–1795.). Based upon this correlation, the rat was used to predict human absorption. […] Thus, oral bioavailability assessments in rats should correlate well with the fraction absorbed in humans.

[20] = Hepatic extraction, human hepatocytes; format: in vitro ADME
Description: as §1

[21] = buffer, pH 1.2, Half-life (Hours), solution stability
[22] = buffer, pH 2.5, Half-life (Hours), solution stability
[23] = buffer, pH 4, Half-life (Hours), solution stability
[24] = buffer, pH 5, Half-life (Hours), solution stability

CC1(C)[C@H](C(=O)[O-])N2C(=O)[C@@H](CO)[C@H]2S1(=O)=O.[Na+] [Na-HMPAS, 4-Thia-1-azabicyclo[3,2,0]heptane-2-carboxylic acid, 6-(hydroxymethyl)-3,3-dimethyl-7-oxo-, 4,4-dioxide, monosodium salt, (2S, 5R, 6R)]
half-life at 100 μM ([1]; pH buffer, pH 1.2, pH 1.2, 25° C., 100 μM, read-out: Half-life (Hours), solution stability): > 24 h | half-life at 100 μM ([1]; pH buffer, pH 1.2, pH 1.2, 37° C., 100 μM, read-out: Half-life (Hours), solution stability): > 24 h | half-life at 100 μM ([1]; pH buffer, pH 2.5, pH 2.5, 25° C., 100 μM, read-out: Half-life (Hours), solution stability): > 24 h | half-life at 100 μM ([1]; pH buffer, pH 2.5, pH 2.5, 37° C., 100 μM, read-out: Half-life (Hours), solution stability): > 24 h | half-life at 100 μM ([1]; pH buffer, pH 4, pH 4.0, 25° C., 100 μM, read-out: Half-life (Hours), solution stability): > 24 h | half-life at 100 μM ([1]; pH buffer, pH 4, pH 4.0, 37° C., 100 μM, read-out: Half-life (Hours), solution stability): > 24 h | half-life at 100 μM ([1]; pH buffer, pH 5, pH 5.0, 25° C., 100 μM, read-out: Half-life (Hours), solution stability): > 24 h | half-life at 100 μM ([1]; pH buffer, pH 5, pH 5.0, 37° C., 100 μM, read-out: Half-life (Hours), solution stability): > 24 h | half-life at 100 μM ([1]; pH buffer, pH 6.5, pH 6.5, 25° C., 100 μM, read-out: Half-life (Hours), solution stability): > 24 h | half-life at 100 μM ([1]; pH buffer, pH 6.5, pH 6.5, 37° C., 100 μM, read-out: Half-life (Hours), solution stability): > 24 h | half-life at 100 μM ([1]; pH buffer, pH 7.4, pH 7.4, 25° C., 100 μM, read-out: Half-life (Hours), solution stability): > 24 h | half-life at 100 μM ([1]; pH buffer, pH 7.4, pH 7.4, 37° C., 100 μM, read-out: Half-life (Hours), solution stability): > 24 h | IC50 [2]: 190 nM

C[C@H](OC(=O)c1ccccc1)OC(=O)[C@@H]1N2C(=O)[C@@H](CO)[C@H]2S(=O)(=O)C1(C)C [Prodrug 3, 4-Thia-1-azabicyclo[3.2.0]heptane-2-carboxylic acid, 6-(hydroxymethyl)-3,3-dimethyl-7-oxo-, (1R)-1-(benzoyloxy)ethyl ester, 4,4-dioxide (2S, 5R, 6R)]
Half-life (Hours), solution stability ([1]; buffer, 100 μM, pH 1.2): >24 h | Half-life (Hours), solution stability ([1]; buffer, 100 μM, pH 2.5): >24 h | Half-life (Hours), solution stability ([1]; buffer, 100 μM, pH 4): >24 h | Half-life (Hours), solution stability ([1]; buffer, 100 μM, pH 5): >24 h | half-life at 100 μM [1, 21]: > 24 h | half-life at 100 μM [1, 22]: > 24 h | half-life at 100 μM [1, 23]: > 24 h | half-life at 100 μM [1, 24]: > 24 h | half-life at 100 μM ([1]; buffer, pH 7, half-life of conversion of the prodrug to active inhibitor): 0.55 h | half-life at 100 μM ([1]; solution half-life): 0.5 h | Potency (percent) in suspension ([3]; Day 3): 103% | Potency (percent) in suspension ([3]; Day 5): 98% | Potency (percent) in suspension ([3]; Day 7): 104% | Potency (percent) in suspension ([3]; Day 10, pH ~6.8 initially, 4.7 by day 10): 91*** percent | potency maintained in suspension ([3]; storage at room temperature for 10 days): greater than 90% | half-life at 100 μM ([4]; dog): 2.8 min | half-life at 100 μM ([4]; human): < 2 min | half-life at 100 μM ([4]; monkey): 3.6 min | half-life at 100 μM ([4]; mouse): 2.8 min | half-life at 100 μM ([4]; rat): < 2 min | IC50 ([5]; pH 6.0): > 100000 nM | IC50 ([5]; pH 7.0): 2200 nM | levels of Prodrug 3 in portal vein blood [6]: < 100 ng/mL | ED50 ([7]; Haemophilus influenzae, 96 h, oral, single agent, gerbil otitis media, H. influenzae 54A1218, bacterial clearance day 4): > 25 mg/kg | ED50 [8]: > 25 mg/kg | ED50 [9]: > 100 mg/kg | ED50 [10]: > 12.5 mg/kg | ED50 [11]: > 25 mg/kg | ED50 [12]: > 100 mg/kg | ED50 [13]: > 25 mg/kg | ED50 [14]: > 25 mg/kg

CC1(C)S[C@@H]2[C@H](NC(=O)[C@H](N)c3ccc(O)cc3)C(=O)N2[C@H]1C(=O)O [Amoxicillin, amoxicillin]
MIC [15]: 4 to 8 µg/mL (≈ 10.9 to 21.9 µM) | outcome as a single agent ([7]; gerbil otitis media model): failed | ED50 [8]: > 100 mg/kg | ED50 [9]: > 100 mg/kg | ED50 [10]: > 100 mg/kg | ED50 [11]: > 200 mg/kg | ED50 [12]: > 200 mg/kg | ED50 [13]: 25 mg/kg | ED50 [14]: 3.3 mg/kg

O=C(O)[C@H]1/C(=C/CO)O[C@@H]2CC(=O)N21 [Clavulanate, lithium clavulanate]
Half-life (Hours), solution stability ([1]; buffer, 100 μM, pH 2.5): 1.2 h | Half-life (Hours), solution stability ([1]; buffer, 100 μM, pH 4): >24 h | Half-life (Hours), solution stability ([1]; buffer, 100 μM, pH 5): >24 h | Half-life (Hours), solution stability ([1]; buffer, 100 μM, pH 6.5): >24 h | Half-life (Hours), solution stability ([1]; buffer, 100 μM, pH 7.4): >24 h | half-life at 100 μM [1, 21]: 0.6 h | half-life at 100 μM [1, 22]: 0.9 h | half-life at 100 μM [1, 23]: > 24 h | half-life at 100 μM [1, 24]: > 24 h | half-life at 100 μM ([1]; buffer, pH 6.5, Half-life (Hours), solution stability): > 24 h | half-life at 100 μM ([1]; buffer, pH 7.4, Half-life (Hours), solution stability): > 24 h | IC50 [16]: 110 nM | potency retained in suspension [17]: 40% | fraction that remains unabsorbed from the intestine ([18]; human): 40% | fraction absorbed into circulation [18]: 60%

CC1(C)[C@H](C(=O)O)N2C(=O)[C@@H](CO)[C@H]2S1(=O)=O [Prodrug 6-β-HMPAS, 6-β-hydroxymethylpenicillanic acid sulfone]
hepatic extraction [19]: minimal hepatic extraction | hepatic extraction [20]: minimal hepatic extraction | IC50 [16]: 320 nM
